Assay results as given in patent US8778929B2, “Substituted heteroaryl inhibitors of B-RAF” (Boehringer Ingelheim International GmbH, priority 2008, dated 2014).

target: B-Raf (V600E)-kinase (Homo sapiens, UniProt P15056, V600E); experiment: Kinase test B-Raf (V600E); format: biochemical; conditions: compound concentration 2 μM; 100% = no inhibition, 0% = total inhibition; read-out: % CTL (residual activity of the enzyme relative to DMSO control)
Description: In a dilution series 10 μL of test substance solution are placed in a multiwell plate. The dilution series is selected so that generally a range of concentrations of 2 μM to 0.119 nM or 0.017 nM is covered. If necessary the initial concentration of 2 μM is changed to 50 μM, 10 μM or 0.4 μM or 0.2857 μM and further dilution is carried out accordingly. The final concentration of DMSO is 5%. 10 μL of the B-Raf (V600E)-kinase solution are pipetted in (containing 0.5 ng B-Raf (V600E)-kinase in 20 mM Tris-HCl pH 7.5, 0.1 mM EDTA, 0.1 mM EGTA, 0.286 mM sodium orthovanadate, 10% glycerol, 1 mg/mL bovine serum albumin, 1 mM dithiothreitol) and the mixture is incubated for 1 h at RT under with shaking The kinase reaction is started by the addition of 20 μL ATP solution [final concentration: 250 μM ATP, 30 mM Tris-HCl pH 7.5, 0.02% Brij, 0.2 mM sodium orthovanadate, 10 mM magnesium acetate, 0.1 mM EGTA, phosphatase cocktail (Sigma, # P2850, dilution recommended by the manufacturer), 0.1 mM EGTA] and 10 μL MEK1 solution [containing 50 ng biotinylated MEK1 (prepared from purified MEK1 according to standard procedure, e.g. with EZ-Link Sulpho-NHS-LC-Biotin reagent, Pierce, # 21335) and carried out for 60 min at RT with constant shaking. The reaction is stopped by the addition of 12 μL of a 100 mM EDTA solution and incubation is continued for a further 5 min. 55 μL of the reaction solution are transferred into a streptavidin-coated plate (e.g. Streptawell HighBond, Roche, #11989685001) and shaken gently for 1 h at RT, in order to bind biotinylated MEK1 to the plate. After elimination of the liquid the plate is washed five times with 200 μL of 1×PBS and 100 μL solution of primary antibody plus europium-labelled secondary antibody [Anti Phospho-MEK (Ser217/221), Cell Signaling, # 9121 and Eu-N1 labeled goat-anti-rabbit antibody, Perkin Elmer, #AD0105], the primary antibody is diluted 1:2000 and the secondary antibody is diluted to 0.4-0.5 μg/mL in Delfia Assay Buffer (Perkin Elmer, #1244-111). After 1 h shaking at RT the solution is poured away and washed five times with 200 μL Delfia Wash Buffer (Perkin Elmer, #4010-0010/#1244-114). After the addition of 200 μL Enhancement Solution (Perkin Elmer, #4001-0010/#1244-105) the mixture is shaken for 10 min at RT and then measured in a Wallac Victor using the program “Delfia Time Resolved Fluorescence (Europium)”. IC50 values are obtained from these dosage-activity curves using a software program (GraphPadPrizm).
A value of 100% indicates no inhibition while a value of 0% indicates total inhibition. The % CTL values denote the residual activity of the enzyme after the addition of the inhibitory compound in the solvent DMSO in relation to the enzyme activity in the solvent DMSO without the addition of a compound (control). The values were determined using the B-Raf(V600E)-kinase test described above.

B-Raf (V600E)-kinase, sequence (P15056 whole entry V600E): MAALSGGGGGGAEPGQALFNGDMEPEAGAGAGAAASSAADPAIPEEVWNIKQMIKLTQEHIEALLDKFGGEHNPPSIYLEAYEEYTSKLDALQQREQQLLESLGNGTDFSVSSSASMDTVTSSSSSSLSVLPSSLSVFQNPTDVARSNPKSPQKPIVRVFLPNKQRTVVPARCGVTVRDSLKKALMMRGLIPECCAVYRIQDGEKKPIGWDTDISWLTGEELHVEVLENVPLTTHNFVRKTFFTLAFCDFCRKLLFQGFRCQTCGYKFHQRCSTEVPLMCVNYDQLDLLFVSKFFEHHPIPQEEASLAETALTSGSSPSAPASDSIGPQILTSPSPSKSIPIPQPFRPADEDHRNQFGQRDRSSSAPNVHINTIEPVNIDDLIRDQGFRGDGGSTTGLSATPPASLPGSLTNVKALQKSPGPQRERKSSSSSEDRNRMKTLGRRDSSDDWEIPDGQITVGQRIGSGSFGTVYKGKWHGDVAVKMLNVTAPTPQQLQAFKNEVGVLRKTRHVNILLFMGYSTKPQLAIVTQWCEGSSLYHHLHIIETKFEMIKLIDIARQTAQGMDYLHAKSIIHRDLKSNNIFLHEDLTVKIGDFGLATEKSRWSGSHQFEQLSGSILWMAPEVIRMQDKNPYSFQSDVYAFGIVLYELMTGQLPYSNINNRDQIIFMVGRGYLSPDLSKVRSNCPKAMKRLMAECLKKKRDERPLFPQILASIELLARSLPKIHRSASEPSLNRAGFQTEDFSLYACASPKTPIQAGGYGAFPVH

remaining activity at 2 µM [%]	SMILES
1.5	Cc1ncc(C(=O)Nc2cc(C(C)(C)C)on2)cc1-n1cc(-c2cncc(Br)c2)nn1 [Example I-34]
1.7	Cc1ncc(C(=O)Nc2cc(C(C)(C)C)on2)cc1-n1cc(-c2cncc(N3CCOCC3)c2)nn1 [Example I-35]
1.8	Cc1ncc(C(=O)Nc2cc(C(C)(C)C)on2)cc1-n1cc(-c2cncc(N3CCCOCC3)c2)nn1 [Example I-36]
2.5	Cc1ncc(C(=O)Nc2cc(C(C)(C)C)on2)cc1-n1cc(-c2cncc(NC3CCOC3)c2)nn1 (stereo not shown) [Example I-37]
2.4	Cc1ncc(C(=O)Nc2cc(C(C)(C)C)on2)cc1-n1cc(-c2cncc(N(C)C3CCOC3)c2)nn1 (stereo not shown) [Example I-38]
1.5	Cc1ncc(C(=O)Nc2cc(C(C)(C)C)on2)cc1-n1cc(-c2cncc(N3CCN(C)CC3)c2)nn1 [Example I-39]
1.4	Cc1ncc(C(=O)Nc2cc(C(C)(C)C)on2)cc1-n1cc(-c2cncc(NC3CCOCC3)c2)nn1 [Example I-40]
1.1	COCCNc1cncc(-c2cn(-c3cc(C(=O)Nc4cc(C(C)(C)C)on4)cnc3C)nn2)c1 [Example I-41]
1.6	Cc1ncc(C(=O)Nc2cc(C(C)(C)C)no2)cc1-n1cc(-c2cnn(C)c2C)nn1 [Example I-42]
1.1	CCN1CCN(c2cc(NC(=O)c3cnc(C)c(-n4cc(-c5cncs5)nn4)c3)cc(C(F)(F)F)c2C)CC1 [Example I-43]
3.3	Cc1cn2c(-c3cn(-c4cc(C(=O)Nc5cc(N6CCN(C)CC6)c(C)c(C(F)(F)F)c5)cnc4C)nn3)cnc2cn1 [Example I-44]
3.2	Cc1cn2c(-c3cn(-c4cc(C(=O)Nc5cc(N6CCN(C)CC6)cc(C(F)(F)F)c5)cnc4C)nn3)cnc2cn1 [Example I-45]
6.1	CCN1CCN(c2cc(NC(=O)c3cnc(C)c(-n4cc(-c5cccnc5)nn4)c3)cc(C(F)(F)F)c2C)CC1 [Example I-46]
2	CCN1CCN(c2cc(NC(=O)c3cnc(C)c(-n4cc(-c5ccc(NC(C)=O)nc5)nn4)c3)cc(C(F)(F)F)c2C)CC1 [Example I-47]
1.7	CCN1CCN(c2cc(NC(=O)c3cnc(C)c(-n4cc(-c5cnc(NC(C)=O)s5)nn4)c3)cc(C(F)(F)F)c2C)CC1 [Example I-48]
6.2	CCN1CCN(c2cc(NC(=O)c3cnc(C)c(-n4cc(-c5cncc(C#N)c5)nn4)c3)cc(C(F)(F)F)c2C)CC1 [Example I-49]
2.2	COc1c(CNC(C)C)cc(NC(=O)c2cnc(C)c(-n3cc(-c4cnc5cnc(C)cn45)nn3)c2)cc1C(F)(F)F [Example I-50]
4	Cc1ncc(C(=O)Nc2cc(OC(F)(F)F)cc(N3CCN(C)CC3)c2)cc1-n1cc(-c2cncs2)nn1 [Example I-51]
1.6	Cc1ncc(C(=O)Nc2cc(CN(C)C)c(Cl)c(C(F)(F)F)c2)cc1-n1cc(-c2cnn(C)c2C)nn1 [Example I-52]
1.4	Cc1ncc(C(=O)Nc2cc(CN3CCCC3)c(Cl)c(C(F)(F)F)c2)cc1-n1cc(-c2cnn(C)c2C)nn1 [Example I-53]
1.2	Cc1ncc(C(=O)Nc2cc(CNC(C)C)c(Cl)c(C(F)(F)F)c2)cc1-n1cc(-c2cnn(C)c2C)nn1 [Example I-54]
1.2	Cc1ncc(C(=O)Nc2cc(CNCC(C)C)c(Cl)c(C(F)(F)F)c2)cc1-n1cc(-c2cnn(C)c2C)nn1 [Example I-55]
1.4	Cc1ncc(C(=O)Nc2cc(Br)c(C)c(C(F)(F)F)c2)cc1-n1cc(-c2cnn(C)c2C)nn1 [Example I-56]

remaining activity at 2 µM [%]	SMILES
2.3	CCN1CCN(c2cc(NC(=O)c3cnc(C)c(-n4cc(-c5cnn(C)c5C)nn4)c3)cc(C(F)(F)F)c2C)CC1 [Example I-57]
5.5	Cc1ncc(C(=O)Nc2cc(N3CCN(C(C)C)CC3)cc(C(F)(F)F)c2)cc1-n1cc(-c2cnn(C)c2C)nn1 [Example I-58]
13.4	CCN1CCN(c2cc(NC(=O)c3cnc(C)c(-n4cc(-c5cnn(C)c5C)nn4)c3)cc(C(F)(F)F)c2)CC1 [Example I-59]
7.2	Cc1ncc(C(=O)Nc2cc(N(C)CCN(C)C)cc(C(F)(F)F)c2)cc1-n1cc(-c2cnn(C)c2C)nn1 [Example I-60]
8.1	Cc1ncc(C(=O)Nc2cc(N3CCOCC3)c(C)c(C(F)(F)F)c2)cc1-n1cc(-c2cnn(C)c2C)nn1 [Example I-61]
2.8	Cc1ncc(C(=O)Nc2cc(Br)cc(C(F)(F)F)c2)cc1-n1cc(-c2cnn(C)c2C)nn1 [Example I-62]
4.6	Cc1ncc(C(=O)Nc2cc(N3CC[C@H](N(C)C)C3)c(C)c(C(F)(F)F)c2)cc1-n1cc(-c2cnn(C)c2C)nn1 [Example I-63]
6.6	COc1ccc(NC(=O)c2cnc(C)c(-n3cc(-c4cncnc4)nn3)c2)cc1C(F)(F)F [Example I-64]
7.1	Cc1ncc(C(=O)Nc2cc(N3CC[C@@H](N(C)C)C3)c(C)c(C(F)(F)F)c2)cc1-n1cc(-c2cnn(C)c2C)nn1 [Example I-65]
6.4	Cc1ncc(C(=O)Nc2cc(N3CCCCC3)c(C)c(C(F)(F)F)c2)cc1-n1cc(-c2cnn(C)c2C)nn1 [Example I-66]
2.9	Cc1ncc(C(=O)Nc2cc(N3CCN(C)CC3)c(C)c(C(F)(F)F)c2)cc1-n1cc(-c2cncnc2)nn1 [Example I-67]
4.7	CCNc1cc(NC(=O)c2cnc(C)c(-n3cc(-c4cnn(C)c4C)nn3)c2)cc(C(F)(F)F)c1C [Example I-68]
2.8	Cc1ncc(C(=O)Nc2cc(N3CCOCC3)cc(C(F)(F)F)c2)cc1-n1cc(-c2cnn(C)c2C)nn1 [Example I-69]
5.5	Cc1ncc(C(=O)Nc2cc(N(C)CCN(C)C)c(C)c(C(F)(F)F)c2)cc1-n1cc(-c2cnn(C)c2C)nn1 [Example I-71]
5.1	Cc1ncc(C(=O)Nc2cc(CN3CCCC3)cc(C(F)(F)F)c2)cc1-n1cc(-c2cncnc2)nn1 [Example I-72]
1.7	CCN(CC)c1cc(NC(=O)c2cnc(C)c(-n3cc(-c4cnn(C)c4C)nn3)c2)cc(C(F)(F)F)c1 [Example I-73]
9	Cc1ncc(C(=O)Nc2cc(N3CCCCC3)cc(C(F)(F)F)c2)cc1-n1cc(-c2cnn(C)c2C)nn1 [Example I-74]
7.3	CCNc1cc(NC(=O)c2cnc(C)c(-n3cc(-c4cnn(C)c4C)nn3)c2)cc(C(F)(F)F)c1 [Example I-75]
1.9	Cc1ncc(C(=O)Nc2cc(N3CC[C@H](N(C)C)C3)cc(C(F)(F)F)c2)cc1-n1cc(-c2cnn(C)c2C)nn1 [Example I-77]
2.8	Cc1ncc(C(=O)Nc2cc(NCCN(C)C)cc(C(F)(F)F)c2)cc1-n1cc(-c2cnn(C)c2C)nn1 [Example I-78]
3.6	Cc1cn(-c2cc(NC(=O)c3cnc(C)c(-n4cc(-c5cncnc5)nn4)c3)cc(C(F)(F)F)c2)cn1 [Example I-79]
1.9	Cc1ncc(C(=O)Nc2cc(C(C)(C)C)on2)cc1-n1cc(-c2cccnc2)nn1 [Example I-80]

same assay, conditions: measurement at 1.43 μM (***); 100% = no inhibition, 0% = total inhibition; read-out: % CTL (residual activity of the enzyme relative to DMSO control)

remaining activity at 1.43 µM [%]	SMILES
2	Cc1ncc(C(=O)Nc2cc(N3CC[C@@H](N(C)C)C3)cc(C(F)(F)F)c2)cc1-n1cc(-c2cnn(C)c2C)nn1 [Example I-76]
